pEC50: −log10 of the molar value. Like-named read-outs stand apart in the source and are kept apart here. *1 amine or outer side, *2 acyl side, *3 side chain or, on linkers, in order; H or OH if unused. Where a SMILES comes first, the peptide text is derived from it. Side-chain parts run from the residue outwards. [ ]: non-standard residue; d: D form. The star is where a group is joined. Isobutyryl(2-(3-CN-5-F-Ph)) = CC(C)(C(=O)*)c1cc(F)cc(C#N)c1; C20 diacid = O=C(O)CCCCCCCCCCCCCCCCCCC(=O)*; Phenylacetyl(3-Cl) = O=C(Cc1cccc(Cl)c1)*; γGlu = O=C(O)[C@H](CCC(=O)[*:2])N[*:1]; X34 = CCC(CC)(C(=O)*)c1ccc(Cl)c(Cl)c1; X57 = CO[C@@H](CN[*:1])C(=O)[*:2]; X18 = O=C(C1(c2cccc(F)c2)CCCC1)*; AEEA = NCCOCCOCC(=O)O; Aib = CC(C)(N)C(=O)O; GABA = NCCCC(=O)O; βAla = NCCC(=O)O
What was measured:
Type in all cases: cell-based
GIP receptor [1] = biological target: T1, GIP receptor (Homo sapiens, UniProt P48546); test: PathHunter β-arrestin assay, GIP receptor; set-up: host or cells: PathHunter CHO-K1 GIPR β-Arrestin Cell Line
T1 sequence (P48546 22-466): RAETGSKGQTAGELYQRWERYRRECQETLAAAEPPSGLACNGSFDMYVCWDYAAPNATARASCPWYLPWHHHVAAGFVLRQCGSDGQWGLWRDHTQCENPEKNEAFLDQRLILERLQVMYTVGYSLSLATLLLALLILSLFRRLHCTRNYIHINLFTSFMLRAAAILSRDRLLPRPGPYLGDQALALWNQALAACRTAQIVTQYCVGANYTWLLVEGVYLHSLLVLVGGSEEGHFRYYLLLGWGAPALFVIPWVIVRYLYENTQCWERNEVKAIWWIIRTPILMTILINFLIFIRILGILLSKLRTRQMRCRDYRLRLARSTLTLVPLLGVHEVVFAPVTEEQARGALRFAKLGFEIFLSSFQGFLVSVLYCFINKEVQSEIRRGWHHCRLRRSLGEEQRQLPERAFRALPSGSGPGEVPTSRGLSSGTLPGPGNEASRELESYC

GLP-1 receptor [2] = biological target: T2, GLP-1 receptor (Homo sapiens, UniProt P43220); test: HitHunter cAMP assay, GLP-1 receptor; settings: for Emax: read-out: Emax GLP-1R
T2 sequence (P43220 24-463): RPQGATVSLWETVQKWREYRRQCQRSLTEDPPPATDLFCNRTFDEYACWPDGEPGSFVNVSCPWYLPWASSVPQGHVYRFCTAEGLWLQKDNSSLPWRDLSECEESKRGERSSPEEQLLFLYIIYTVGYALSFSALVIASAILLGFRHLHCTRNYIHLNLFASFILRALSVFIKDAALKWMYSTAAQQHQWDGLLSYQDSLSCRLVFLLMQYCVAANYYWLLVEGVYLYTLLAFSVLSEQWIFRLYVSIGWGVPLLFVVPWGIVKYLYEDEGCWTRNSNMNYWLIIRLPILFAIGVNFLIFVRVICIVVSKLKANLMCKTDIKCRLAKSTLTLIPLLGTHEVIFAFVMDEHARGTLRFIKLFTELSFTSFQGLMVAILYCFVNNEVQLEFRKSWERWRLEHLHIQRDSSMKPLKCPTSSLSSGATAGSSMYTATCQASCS

GIP receptor [3] = biological target: T1, GIP receptor; test: HitHunter cAMP assay, GIP receptor; settings: for Emax: read-out: Emax GIP-1R
GLP-1 receptor [4] = biological target: T2, GLP-1 receptor; test: PathHunter β-arrestin assay, GLP-1 receptor; set-up: host or cells: PathHunter CHO-K1 GLP1R β-Arrestin Cell Line
[5] = β-arrestin-2 recruitment, PathHunter CHO-K1 GIPR β-Arrestin Cell Line, 90 min at 37° C., normalized to GIP, read-out: GIPR β Arrestin EC50
[6] = CHO cells stably expressing human GLP-1 receptor, cAMP accumulation, 30 min, read-out: EC50 GLP-1R
[7] = CHO cells, cAMP, normalized to maximum signal from GLP-1 (high) and DMSO (low)
[8] = CHO cells stably expressing GIP receptor, cAMP accumulation, 30 min, read-out: EC50 GIP-1R
[9] = CHO cells, cAMP, normalized to maximum signal from GIP (high) and DMSO (low)
[10] = β-arrestin-2 recruitment, PathHunter CHO-K1 GLP1R β-Arrestin Cell Line, 90 min at 37° C., normalized to GLP-1, read-out: GLP-1R β Arrestin EC50

## CC[C@H](C)[C@H](NC(=O)[C@H](CC(C)C)NC(=O)[C@H](Cc1c[nH]c2ccccc12)NC(=O)[C@H](CCC(N)=O)NC(=O)[C@@H](NC(=O)[C@H](Cc1ccccc1)NC(=O)[C@H](C)NC(=O)[C@H](CCCCNC(=O)COCCOCCNC(=O)COCCOCCNC(=O)CC[C@H](NC(=O)CCCCCCCCCCCCCCCCCCC(=O)O)C(=O)O)NC(=O)[C@H](CCC(N)=O)NC(=O)[C@H](C)NC(=O)[C@@H](NC(=O)[C@H](CCCCN)NC(=O)[C@H](CC(=O)O)NC(=O)[C@H](CC(C)C)NC(=O)C(C)(C)NC(=O)[C@@H](NC(=O)[C@H](CO)NC(=O)[C@H](Cc1ccc(O)cc1)NC(=O)[C@H](CC(=O)O)NC(=O)[C@H](CO)NC(=O)[C@@H](NC(=O)[C@H](Cc1ccccc1)NC(=O)[C@@H](NC(=O)CNC(=O)[C@H](CCC(=O)O)NC(=O)[C@H](CNC(=O)C(C)(C)c1cc(F)cc(C#N)c1)OC)[C@@H](C)O)[C@@H](C)O)[C@@H](C)CC)[C@@H](C)CC)C(C)C)C(=O)N[C@@H](C)C(=O)NCC(=O)NCC(=O)N1CCC[C@H]1C(=O)N[C@@H](CO)C(=O)N[C@@H](CO)C(=O)NCC(=O)N[C@@H](C)C(=O)N1CCC[C@H]1C(=O)N1CCC[C@H]1C(=O)N1CCC[C@H]1C(=O)N[C@@H](CO)C(N)=O [Compound 194] ({Isobutyryl(2-(3-CN-5-F-Ph))}-[X57]EGTFTSDYSI[Aib]LDKIAQK([AEEA-AEEA-γGlu-C20 diacid])AFVQWLIAGGPSSGAPPPS-NH2)
GIP receptor [1]; [5]
  pEC50: < 6.00
GLP-1 receptor [2]; [6]
  pEC50: 7.00 to 8.00
GLP-1 receptor [2]; [7]
  Emax: 80%
GIP receptor [3]; [8]
  pEC50: 7.00 to 8.00
GIP receptor [3]; [9]
  Emax: 78%
GLP-1 receptor [4]; [10]
  pEC50: < 6.00

## CC[C@H](C)[C@H](NC(=O)[C@H](CO)NC(=O)[C@H](Cc1ccc(O)cc1)NC(=O)[C@H](CC(=O)O)NC(=O)[C@H](CO)NC(=O)[C@@H](NC(=O)[C@H](Cc1ccccc1)NC(=O)[C@@H](NC(=O)CNC(=O)[C@H](CCC(=O)O)NC(=O)CCNC(=O)C(C)(C)c1cc(F)cc(C#N)c1)[C@@H](C)O)[C@@H](C)O)C(=O)N[C@@H](Cc1ccc(O)cc1)C(=O)N[C@@H](CC(C)C)C(=O)N[C@@H](CC(=O)O)C(=O)N[C@@H](CCCCN)C(=O)N[C@@H](CCC(N)=O)C(=O)N[C@@H](C)C(=O)N[C@@H](C)C(=O)N[C@@H](CCCCNC(=O)COCCOCCNC(=O)COCCOCCNC(=O)CC[C@H](NC(=O)CCCCCCCCCCCCCCCCCCC(=O)O)C(=O)O)C(=O)N[C@@H](CCC(=O)O)C(=O)N[C@@H](Cc1ccccc1)C(=O)N[C@H](C(=O)N[C@@H](CC(N)=O)C(=O)N[C@@H](Cc1c[nH]c2ccccc12)C(=O)N[C@@H](CC(C)C)C(=O)N[C@@H](CC(C)C)C(=O)N[C@@H](C)C(=O)NCC(=O)NCC(=O)N1CCC[C@H]1C(=O)N[C@@H](CO)C(=O)N[C@@H](CO)C(=O)NCC(=O)N[C@@H](C)C(=O)N1CCC[C@H]1C(=O)N1CCC[C@H]1C(=O)N1CCC[C@H]1C(=O)N[C@@H](CO)C(N)=O)C(C)C [Compound 184]
GIP receptor [1]; [5]
  pEC50: < 6.00
GLP-1 receptor [2]; [6]
  pEC50: 8.00 to 9.00
GLP-1 receptor [2]; [7]
  Emax: 99%
GIP receptor [3]; [8]
  pEC50: 6.00 to 7.00
GIP receptor [3]; [9]
  Emax: 90%
GLP-1 receptor [4]; [10]
  pEC50: < 6.00

## CC[C@H](C)[C@H](NC(=O)[C@H](CC(C)C)NC(=O)[C@H](Cc1c[nH]c2ccccc12)NC(=O)[C@H](CCC(N)=O)NC(=O)[C@@H](NC(=O)[C@H](Cc1ccccc1)NC(=O)[C@H](C)NC(=O)[C@H](CCCCNC(=O)COCCOCCNC(=O)COCCOCCNC(=O)CC[C@H](NC(=O)CCCCCCCCCCCCCCCCCCC(=O)O)C(=O)O)NC(=O)[C@H](CCC(N)=O)NC(=O)[C@H](C)NC(=O)[C@@H](NC(=O)[C@H](CCCCN)NC(=O)[C@H](CC(=O)O)NC(=O)[C@H](CC(C)C)NC(=O)C(C)(C)NC(=O)[C@@H](NC(=O)[C@H](CO)NC(=O)[C@H](Cc1ccc(O)cc1)NC(=O)[C@H](CC(=O)O)NC(=O)[C@H](CO)NC(=O)[C@@H](NC(=O)[C@H](Cc1ccccc1)NC(=O)[C@@H](NC(=O)CNC(=O)[C@H](CCC(=O)O)NC(=O)CCNC(=O)C1(c2cccc(F)c2)CCCC1)[C@@H](C)O)[C@@H](C)O)[C@@H](C)CC)[C@@H](C)CC)C(C)C)C(=O)N[C@@H](C)C(=O)NCC(=O)NCC(=O)N1CCC[C@H]1C(=O)N[C@@H](CO)C(=O)N[C@@H](CO)C(=O)NCC(=O)N[C@@H](C)C(=O)N1CCC[C@H]1C(=O)N1CCC[C@H]1C(=O)N1CCC[C@H]1C(=O)N[C@@H](CO)C(N)=O [Compound 214] ({X18-βAla}-EGTFTSDYSI[Aib]LDKIAQK([AEEA-AEEA-γGlu-C20 diacid])AFVQWLIAGGPSSGAPPPS-NH2)
GIP receptor [1]; [5]
  pEC50: < 6.00
GLP-1 receptor [2]; [6]
  pEC50: 9.00 to 10.00
GLP-1 receptor [2]; [7]
  Emax: 97%
GIP receptor [3]; [8]
  pEC50: 9.00 to 10.00
GIP receptor [3]; [9]
  Emax: 101%
GLP-1 receptor [4]; [10]
  pEC50: < 6.00

## CC[C@H](C)[C@H](NC(=O)[C@H](CC(C)C)NC(=O)[C@H](Cc1c[nH]c2ccccc12)NC(=O)[C@H](CCC(N)=O)NC(=O)[C@@H](NC(=O)[C@H](Cc1ccccc1)NC(=O)[C@H](C)NC(=O)[C@H](CCCCNC(=O)COCCOCCNC(=O)COCCOCCNC(=O)CC[C@H](NC(=O)CCCCCCCCCCCCCCCCCCC(=O)O)C(=O)O)NC(=O)[C@H](CCC(N)=O)NC(=O)[C@H](C)NC(=O)[C@@H](NC(=O)[C@H](CCCCN)NC(=O)[C@H](CC(=O)O)NC(=O)[C@H](CC(C)C)NC(=O)C(C)(C)NC(=O)[C@@H](NC(=O)[C@H](CO)NC(=O)[C@H](Cc1ccc(O)cc1)NC(=O)[C@H](CC(=O)O)NC(=O)[C@H](CO)NC(=O)[C@@H](NC(=O)[C@H](Cc1ccccc1)NC(=O)[C@@H](NC(=O)CNC(=O)[C@H](CCC(=O)O)NC(=O)CCCNC(=O)CNC(=O)Cc1cccc(Cl)c1)[C@@H](C)O)[C@@H](C)O)[C@@H](C)CC)[C@@H](C)CC)C(C)C)C(=O)N[C@@H](C)C(=O)NCC(=O)NCC(=O)N1CCC[C@H]1C(=O)N[C@@H](CO)C(=O)N[C@@H](CO)C(=O)NCC(=O)N[C@@H](C)C(=O)N1CCC[C@H]1C(=O)N1CCC[C@H]1C(=O)N1CCC[C@H]1C(=O)N[C@@H](CO)C(N)=O [Compound 221] ({Phenylacetyl(3-Cl)}-G[GABA]EGTFTSDYSI[Aib]LDKIAQK([AEEA-AEEA-γGlu-C20 diacid])AFVQWLIAGGPSSGAPPPS-NH2)
GIP receptor [1]
  pEC50: < 6.00
GLP-1 receptor [2]
  pEC50: 7.00 to 8.00
GLP-1 receptor [2]; CHO
  Emax: 95%
GIP receptor [3]
  pEC50: 7.00 to 8.00
GIP receptor [3]; CHO
  Emax: 95%
GLP-1 receptor [4]
  pEC50: < 6.00

## CC[C@H](C)[C@H](NC(=O)[C@H](CC(C)C)NC(=O)[C@H](Cc1c[nH]c2ccccc12)NC(=O)[C@H](CCC(N)=O)NC(=O)[C@@H](NC(=O)[C@H](Cc1ccccc1)NC(=O)[C@H](C)NC(=O)[C@H](CCCCNC(=O)COCCOCCNC(=O)COCCOCCNC(=O)CC[C@H](NC(=O)CCCCCCCCCCCCCCCCCCC(=O)O)C(=O)O)NC(=O)[C@H](CCC(N)=O)NC(=O)[C@H](C)NC(=O)[C@@H](NC(=O)[C@H](CCCCN)NC(=O)[C@H](CC(=O)O)NC(=O)[C@H](CC(C)C)NC(=O)C(C)(C)NC(=O)[C@@H](NC(=O)[C@H](CO)NC(=O)[C@H](Cc1ccc(O)cc1)NC(=O)[C@H](CC(=O)O)NC(=O)[C@H](CO)NC(=O)[C@@H](NC(=O)[C@H](Cc1ccccc1)NC(=O)[C@@H](NC(=O)CNC(=O)[C@H](CCC(=O)O)NC(=O)CCNC(=O)C(CC)(CC)c1ccc(Cl)c(Cl)c1)[C@@H](C)O)[C@@H](C)O)[C@@H](C)CC)[C@@H](C)CC)C(C)C)C(=O)N[C@@H](C)C(=O)NCC(=O)NCC(=O)N1CCC[C@H]1C(=O)N[C@@H](CO)C(=O)N[C@@H](CO)C(=O)NCC(=O)N[C@@H](C)C(=O)N1CCC[C@H]1C(=O)N1CCC[C@H]1C(=O)N1CCC[C@H]1C(=O)N[C@@H](CO)C(N)=O [Compound 175] ({X34-βAla}-EGTFTSDYSI[Aib]LDKIAQK([AEEA-AEEA-γGlu-C20 diacid])AFVQWLIAGGPSSGAPPPS-NH2)
GIP receptor [1]; [5]
  pEC50: > 6.00
GLP-1 receptor [2]; [6]
  pEC50: 8.00 to 9.00
GLP-1 receptor [2]; [7]
  Emax: 94%
GIP receptor [3]; [8]
  pEC50: 8.00 to 9.00
GIP receptor [3]; [9]
  Emax: 110%
GLP-1 receptor [4]; [10]
  pEC50: < 6.00

From US12281149B2, “Modulators of G-protein coupled receptors” (priority 2021, dated 2025)
